How the values were obtained:
[1] = target: T1, Folate Uptake Transporter (PCFT) in Caco2 cells (Homo sapiens, UniProt Q96NT5); assay: Folate uptake transporter substrate assessment in Caco2 cell line (compound uptake with and without pemetrexed); assay type: in vitro ADME
T1 construct: These cells express high levels of the PCFT/SLC46A1 receptor; host or cells: Caco-2
T1 sequence (Q96NT5 1-459): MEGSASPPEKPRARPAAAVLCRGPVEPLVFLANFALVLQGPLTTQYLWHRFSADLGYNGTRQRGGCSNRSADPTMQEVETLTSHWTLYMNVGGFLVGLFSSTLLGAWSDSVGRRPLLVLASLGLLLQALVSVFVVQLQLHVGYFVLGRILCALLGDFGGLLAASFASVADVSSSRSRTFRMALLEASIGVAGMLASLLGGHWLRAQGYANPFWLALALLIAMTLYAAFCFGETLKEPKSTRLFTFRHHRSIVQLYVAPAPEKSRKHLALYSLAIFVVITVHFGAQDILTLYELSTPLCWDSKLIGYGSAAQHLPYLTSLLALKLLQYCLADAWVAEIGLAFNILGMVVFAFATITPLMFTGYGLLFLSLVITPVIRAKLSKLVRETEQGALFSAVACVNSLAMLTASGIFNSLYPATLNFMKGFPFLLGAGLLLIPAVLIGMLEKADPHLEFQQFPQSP
Method: Cell Plates were Prepared According to the Methods of Example 8 Using Caco-2 Cells from American Type Culture Collection at Passage 37.
The transport buffer (HBSS with 10 mM MES, pH 5.5) was prepared by weighing 1.952 g of MES and 0.35 g sodium hydrogen carbonate and adding into 900 mL of pure water followed by sonication to dissolve the content. Following the transfer of 100 mL of 10×HBSS into the solution. The solution was placed on a stirrer, the pH was slowly adjusted with hydrochloric acid to 5.5, and then the solution was filtered to get HBSS solution (with 10 mM MES, pH 5.5).
The test compounds and folic acid (1 μM) substrate solutions were prepared by diluting with pH 5.5 buffer. Next, the test compounds and folic acid (1 μM) substrate solution+positive control inhibitor (pemetrexed, 50 μM) were prepared. For the solution without inhibitor, DMSO was diluted with corresponding substrate solution to get the working incubation solution.
For the solution with inhibitor, the pre-incubation solution was prepared by adding the positive control inhibitor (pemetrexed, 50 μM) in pH 5.5 buffer. For the solution without inhibitor, DMSO was diluted with pH 5.5 buffer and used as the vehicle control.
When the 8-10 day Caco-2 cultured cells reached confluence and were differentiated, they were ready to be used for transport studies. The Caco-2 plate was removed from the incubator, and the medium was removed from the 24-well Plates. Next, cells were washed 3 times with 300 μL of pre-warmed pH 5.5 buffer. Then, 300 μL of pre-incubation solution was added into each well and the plate was placed at 37° C. for 30 minutes. The assay was performed in duplicate. After 30 minutes pre-incubation, the pre-incubation solution was aspirated, and 300 μL of pre-warmed working incubation solution was added to start the transporter assay. After 6 minutes incubation, cells were washed by quickly adding/aspirating 300 μL of ice-cold pH 5.5 buffer 4 times. The pH 5.5 buffer was removed and 300 μL of pure water was added into each well. Freeze-thaw in liquid nitrogen and 37° C. incubator was repeated for 3 times to lyse cells. After, centrifugation at 3,300 g was performed for 30 seconds. Next, 50 μL of supernatant was transferred to 200 μL methanol or acetonitrile containing internal standard and centrifuged at 3,300 g for 30 minutes. 200 μL aliquots of the supernatants were used for LC-MS/MS analysis. Standards were treated the same as samples.
A BCA Kit was used to determine the protein content for each well. Bovine serum albumin at 2, 1, 0.5, 0.25, 0.125, 0.0625, 0.0313, 0.0156, 0.00781 and 0.00391 mg/mL was prepared in Phosphate Buffer Saline (PBS, pH 7.4). 10 μL of supernatant was mixed from the previous step with the same volume of PBS. 20 μL of standard or test sample was added into 96-well clear plate and mixed with 200 μL working reagent. After 30 minutes incubation at 37° C., the absorbance at 562 nm was measured on the microplate reader.
Standard-curves: prepared 200 μM DMSO Folic acid solution, samples of 1000 nm, 300 nm, 100 nm, 30 nM, and 10 nM prepared using a PH 5.5 buffer, and a PH 5.5 buffer containing 50 μM of pemetrexed, respectively.
All calculations were carried out using Microsoft Excel. Peak areas were determined from extracted ion chromatograms. Uptake rate, in unit of pmol/mg protein/min, is calculated using the following equation: Uptake rate=Conc./(Protein×Time); Conc. is concentration of drug in cell lysate (nM), Protein is the protein concentration of cell lysate (mg/mL), and Time is the incubation time (minute). Uptake ratio is calculated using the following equation: Uptake ratio=Uptake rate without inhibitor/Uptake rate with inhibitor. Note: The compound was considered as a potential substrate of a particular transporter when the uptake ratio was greater than 2.

[2] = test system: Caco-2 cells; assay: Toxicity in Caco-2 cells; assay type: cell-based; details: tested at 2-400 μM

cell permeability ([1]; Caco-2): least permeable
Uptake Ratio(−Inhibitor/+Inhibitor) ([1]; human, Caco-2, 6 min, 1 μM, pH 5.5): 0.76
SMILES: CC(=O)N1CCC(C(=O)N2CCN3C(=O)c4cc(-c5ccccc5)ccc4NC(=O)C3C2)CC1 (stereo not drawn) [MPOL_B_1, 2-(1-acetylpiperidine-4-carbonyl)-8-phenyl-1,3,4,12a-tetrahydrobenzo[e]pyrazino[1,2-a][1,4]diazepine-6,12(2H,11H)-dione]
toxicity [2]: not toxic
